These results are taken from PMC6443933, “Antagonizing Retinoic Acid-Related-Orphan Receptor Gamma Activity Blocks the T Helper 17/Interleukin-17 Pathway Leading to Attenuated Pro-inflammatory Human Keratinocyte and Skin Responses” (Frontiers in Immunology, 2019).

Experiment [1] concerns HaCaT keratinocytes. Briefly: IL-17-driven HaCaT keratinocyte responses (Th17 supernatants or spiked cytokines), qRT-PCR. The class given is cell-based, human. Conditions: supernatants of Th17 cells treated with 10 μM vs 0.13 nM, 24 h. As for the experimental part: The HaCaT keratinocyte cell line was purchased from AddexBio and was maintained in RPMI 1640 medium supplemented with Glutamax, Penicillin/Streptomycin (all from Gibco) and 10% FCS (PAA). Normal primary human epidermal keratinocytes (NHEKs) were purchased from Lonza and PromoCell, respectively. Cells were cultured in Keratinocyte basal growth medium (KBM; Lonza) containing KGM2 growth supplements including insulin, human epidermal growth factor, bovine pituitary extract, hydrocortisone, epinephrine, transferrin, and gentamicin/amphotericin B (Lonza). HaCaT cells were incubated in a 96-well-microtiter plate (2 × 10^4 cells/well) with Th17 cytokine-containing supernatants obtained from total CD4^+ T-cells that were polarized for 72 h in the presence of anti-CD3/CD28 antibodies and a Th17 polarization cocktail as described above. […] Cytokine concentrations in supernatants were determined from representative experiments and they contained approximately 150 pg/ml or 600 pg/ml of IL-17 in 10 μM or in 0.13 nM treated samples, respectively. The TNF-α concentration was similar in supernatants exposed to low or high Cpd A concentrations and was 4 ng/ml. To study the impact of the IL-17 cytokine, IL-17 in the supernatants and in the spike-in cocktails was neutralized by a 0.5 h pre-incubation with an IL-17-specific antibody [0.75 μg/ml; Secukinumab (Cosentyx®, Novartis)]. All cultures were incubated in triplicates and after a 24 h incubation period, HaCaT cells (6 × 10^4 cells/sample) and NHEKs (1 × 10^5 cells/sample) were harvested and further processed for qRT-PCR analysis.
Total RNA from human Th17 cells (6 × 10^5 cells), RORγt-RORE HUT78 cells (4 × 10^5 cells) and HaCaT cells (6 × 10^4 cells) was extracted using RNeasy kit including a DNAse I digestion step according to the manufacturer‘s protocol (Qiagen). Frozen skin biopsies (8 mm punches) were resuspended in RLT buffer (Qiagen) containing 1% β-mercaptoethanol and homogenized using a Precellys-Cryolys device (Bertin Instruments) according to the manufacturer's instructions. cDNAs were prepared with the High Capacity cDNA Reverse Transcription Kit (Applied Biosystems). Quantitative RT-PCR analysis was performed using a TaqManViiA7 (Applied Biosystems). All runs were accompanied by the internal control gene human β-glucoronidase (Gus) (431088E). The samples were run in triplicate or in hexaplicate and normalized to Gus using the ΔΔCt method to provide arbitrary units representing relative expression levels. The following Taqman probes were used for RT-PCR (Thermo Scientific): RORC (Hs01076112_m1), IL17A (Hs00936345_m1), IL22 (Hs01574154_m1), IL26 (Hs00218189_m1), IL23R (Hs00332759_m1), CCR6 (Hs00218189_m1), NFKBIZ (Hs00355476_m), DEFB4A (Hs00823638_m1), IL36G (Hs00219742_m1), and CCL20 (Hs00355476_m1).

Experiment [2] relates to RORγt expression. The experiment in a line: RORγt expression in cultures (data not shown). Conditions: preliminary evidence. The class given is cell-based.
Experiment [3] concerns HUT78 T-cells stably expressing full-length eGFP-RORγt. The experiment in a line: IL-17A / IL-2 production by RORγt transduced HUT78 T-cell line. The format is cell-based, human.
The subject of experiment [4] is RORγt. Briefly: Binding of transcription/co-factors to RORγt or RORE oligonucleotides after treatment (data not shown). The format is cell-based.
The target of experiment [5] is T1, human RORγt-LBD (Homo sapiens, UniProt P51449).
T1 construct: human RORγt-LBD (264-518, produced at Novartis); made in house
T1 sequence (P51449 264-518): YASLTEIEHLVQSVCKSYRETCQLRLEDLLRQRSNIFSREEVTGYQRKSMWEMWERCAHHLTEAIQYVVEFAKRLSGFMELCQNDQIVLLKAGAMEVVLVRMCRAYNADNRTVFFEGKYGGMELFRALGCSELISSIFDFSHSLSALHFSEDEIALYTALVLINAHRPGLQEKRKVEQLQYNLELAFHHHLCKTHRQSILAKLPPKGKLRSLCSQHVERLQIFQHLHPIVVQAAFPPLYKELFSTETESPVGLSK
The experiment in a line: TR-FRET RIP140 co-activator peptide displacement from RORγt-LBD. The class given is biochemical. Conditions: 1 h incubation, read-out: IC50, disruption of RIP140 peptide interaction with RORγt-LBD. As for the experimental part:
Compound-mediated disruption of the interaction between the human RORγt-LBD (264-518, produced at Novartis) with a biotinylated RIP140 derived co-activator peptide (biotinyl-NH-Ahx-[…]-CONH2, Thermo Scientific) was quantified by TR-FRET as previously described ([34], [44]). Briefly, Cpd A was incubated with a mixture consisting of 6 nM His6-tagged RORγt-LBD, 90 nM biotinylated RIP140 co-activator peptide, 0.45 nM Cy5-labeled streptavidin (GE Healthcare), 1.5 nM Europium-labeled anti-His6 antibody (Perkin Elmer). After 1 h of incubation, the emissions were measured at 615 and 665 nm. Concentration-response curves were generated and IC50 values were calculated using the GraphPad Prism software package.

Experiment [6] concerns naive human CD4+ T-cells. Briefly: Th17 polarization of naive CD4+ T-cells, IL-17A ELISA. The format is cell-based. Conditions: T-cell, 168 h, Th17 differentiation 7 days, read-out: IC50, IL-17A secretion. As for the experimental part:
Total, naive and memory CD4^+ T cells were isolated from Peripheral blood mononuclear cells (PBMCs) from healthy volunteers by density gradient centrifugation using Ficoll Paque (GE). Total, naive or memory CD4^+ T-cells were prepared by immunomagnetic separation using the respective CD4^+ T-cell enrichment kits resulting in untouched highly purified subsets (EasySep™, Stem Cell). Purity was assessed by flow cytometry and was between 95 and 98% for the total CD4^+ T-cells. The purity of naive (CD45RA^+CD45RO^−) and memory (CD45RA^−CD45RO^+) CD4^+T-cells ranged between 95 and 98%, respectively. For T-cell stimulation experiments, cells were treated as previously published ([44]). Briefly, T-cells were stimulated with plate-bound monoclonal antibodies against CD3 (1 μg/ml, clone OKT-3, BioXcell) and CD28 (1 μg/ml, clone CD28.2, BioLegend). For Th17 polarization assays, IL-6 (20 ng/ml), TGF-β1 (5 ng/ml), IL-1β (10 ng/ml), and IL-23 (10 ng/ml) were added. For Th1 polarization assays, IL-12 (10 ng/ml) and anti-IL-4 antibody (5 μg/ml), for Th2 polarizations, IL-4 (10 ng/ml) and anti-IFN-γ antibody (5 μg/ml) were added. For Th0 polarization assays, cells were only stimulated with CD3 and CD28 antibodies. […] Cytokine concentrations were quantified by ELISA according to the manufacturer's instructions (eBioscience or BioLegend).

Regarding `Cc1ccc(C(=O)Nc2cn3ccnc3c(CN3CCN(c4noc(C(C)(C)C)n4)[C@@H](C)C3)c2C)cn1` [Cpd A, (S)-N-(8-((4-(5-(tert-butyl)-1,2,4-oxadiazol-3-yl)-3-methylpiperazin-1-yl)methyl)-7-methylimidazo[1,2-a]pyridin-6-yl)-6-methylnicotinamide], the “IL-17 signature genes (NFKBIZ, DEFB4A, CCL20, IL36G) in HaCaT” value in experiment [1] is reported as “marked reduction”. Besides, the “RORγt expression in cultures” value in experiment [2] was “did not modify”. In addition, the half-inhibitory concentration (IC50) in experiment [3] (Homo sapiens, PMA plus anti-CD3, 48 h, ELISA) amounted to 27 nM; in experiment [5] it was 5.7 nM; in experiment [6], 15 nM. For the same molecule, the IL-2 cytokine production result in experiment [3] (PMA plus anti-CD3, 48 h, ELISA) was “not affected”. Further, in experiment [3] (concentration-dependent), the “attenuation of IL-17A production” value is listed as “complete attenuation”. The “binding of TAZ, steroid receptor co-activators, p300, HIF-1α, Runx to RORγt or RORE oligonucleotides” value in experiment [4] is reported as “remained intact”.
